Source: patent publication US10322998B2, “Heterogeneous foldamers containing α, β, and/or γ-amino acids” (WISCONSIN ALUMNI RESEARCH FOUNDATION, priority 2002, dated 2019)
One block for each compound: values may come before it.

Assay: Solubility, qualitative observations during synthesis and characterisation

solubility in organic solvents (organic solvents, crude product): poor solubility
SMILES: CC(C)[C@@H](NC(=O)OC(C)(C)C)C(=O)N[C@@H]1CCCC[C@H]1C(=O)N[C@@H](C(=O)N[C@@H]1CCCC[C@H]1C(=O)OCc1ccccc1)C(C)C [2-28, Boc-D-Val-ACHC-D-Val-ACHC-Olin]

solubility in other solvents (solvents other than 1:1 CDCl3:CD3OD): poor solubility
SMILES: COC(=O)[C@H]1CC[C@H](NC(=O)[C@H]2CC[C@H](NC(=O)[C@H]3CC[C@H](NC(=O)[C@H]4CC[C@H](NC(=O)OC(C)(C)C)C4)C3)C2)C1 [Compound 7]

solubility in common solvents (crude compound, water, methanol, acetonitrile, acetone, ethyl acetate, methylene chloride, DMSO): insoluble
SMILES: CC(=O)NC1CCCC1C(=O)N[C@@H](Cc1ccccc1)C(=O)NC1CCCC1C(=O)N[C@@H](Cc1ccccc1)C(=O)NC1CCCC1C(=O)N[C@@H](Cc1ccccc1)C(N)=O (stereo partly shown) [Peptide 42]

SMILES: CC(C)(CNC(=O)[C@H]1CC[C@H](NC(=O)[C@H]2CC[C@H](NC(=O)Cc3ccccc3)C2)C1)NC(=O)[C@H]1CCCN1C(=O)[C@H]1CC[C@H](NC(=O)[C@H]2CC[C@H](NC(=O)C(C)(C)C)C2)C1 [compound 3]
solubility in CD2Cl2 (CD2Cl2): nearly insoluble
